Data taken from PubChem BioAssay AID652156 (NMMLSC, 2013).

System: ER-HoxA9 myeloid cells, GFP+/MAC1+ differentiation, flow cytometry
Assay: myeloid differentiation promoters in ER-HoxA9 cells, dose response, cell-based, flow cytometry, Powder Set01 (AID 652156)

Row | Compound | EC50 [nM]
1 | O=C(CCNC(=O)c1ccc(Cl)cc1)NC1CCCc2ccccc21 (stereo not drawn) | 2090
2 | Cc1ccc(Nc2nc(=O)c3cccnc3s2)c(Br)c1 | 930
3 | O=C(O)c1cccnc1Nc1ccc(Cl)cc1 | 1330
